Laboratory results: the supplement of paper PMC10307832

What was measured:
Assay in all cases: relative viability (nuclei count vs DMSO), 5 days (fraction); higher = more cells survive
[1] = compound: COc1cc2nccc(Oc3ccc(NC(=O)C4(C(=O)Nc5ccc(F)cc5)CC4)cc3)c2cc1OC [Cabozantinib] + CC(C)C[C@H](NC(=O)[C@H](Cc1ccccc1)NC(=O)c1cnccn1)B(O)O [Bortezomib] (partner 0.002 µM)
Summary of the method: (§1)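 After 5 days of treatment, lung cancer cells in 1536-well plates were fixed and stained in a single step (final 0.05% Triton X-100, 1% formaldehyde, 1 ug/ml Hoechst) and their nuclei counted on 4× images. Treatment had been applied by pin tool the day after seeding as one drug alone or as a fixed anchor-drug dose with five library-drug doses (not always all listed) in √10 steps. Relative viability is the nuclei count of treated wells divided by that of vehicle wells, and values are medians of duplicate plates.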

[2] = compound: O[C@@H](COc1cccc2ncccc12)CN1CCN([C@@H]2c3ccccc3[C@@H]3[C@H](c4ccccc42)C3(F)F)CC1 [Zosuquidar] + C[C@@H](Oc1cc(-c2cnn(C3CCNCC3)c2)cnc1N)c1c(Cl)ccc(F)c1Cl [Crizotinib] (partner 1 µM)
Summary of the method: as §1

[3] = compound: COc1cc2nccc(Oc3ccc(NC(=O)C4(C(=O)Nc5ccc(F)cc5)CC4)cc3)c2cc1OC [Cabozantinib] + C[C@]1(O)C[C@@H](c2nc(-c3ccc4ccc(-c5ccccc5)nc4c3)c3c(N)nccn32)C1 [Linsitinib] (partner 1 µM)
Summary of the method: as §1

[4] = compound: COc1cc2nccc(Oc3ccc(NC(=O)C4(C(=O)Nc5ccc(F)cc5)CC4)cc3)c2cc1OC [Cabozantinib] + O=C(c1cc(Cc2n[nH]c(=O)c3ccccc23)ccc1F)N1CCN(C(=O)C2CC2)CC1 [Olaparib] (partner 8 µM)
Summary of the method: as §1

Work on UMC-11 yielded a relative viability ([1]; first compound 0.02 µM) of 0.669, a relative viability ([1]; first compound 0.06325 µM) of 0.921 and a relative viability ([1]; first compound 0.2 µM) of 0.709. The relative viability ([1]; first compound 0.6325 µM) was 0.649, the relative viability ([1]; first compound 2 µM) was 0.815 and the relative viability ([2]; first compound 0.01 µM) was 0.494. For the same cell line, the relative viability ([2]; first compound 0.03162 µM) was 0.619, the relative viability ([2]; first compound 0.1 µM) was 0.578 and the relative viability ([2]; first compound 0.3162 µM) was 0.622. For the same cell line, the relative viability ([2]; first compound 1 µM) was 0.564, the relative viability ([3]; first compound 0.02 µM) was 1.12 and the relative viability ([3]; first compound 0.06325 µM) was 1.04. It also gave a relative viability ([3]; first compound 0.2 µM) of 1.03, a relative viability ([3]; first compound 0.6325 µM) of 0.98 and a relative viability ([3]; first compound 2 µM) of 1.05. It also gave a relative viability ([4]; first compound 0.02 µM) of 0.399, a relative viability ([4]; first compound 0.06325 µM) of 0.304 and a relative viability ([4]; first compound 0.2 µM) of 0.502. It also gave a relative viability ([4]; first compound 0.6325 µM) of 0.312 and a relative viability ([4]; first compound 2 µM) of 0.391.
